According to patent US20240148821A1, “PHARMACEUTICAL USE OF CYCLIC PEPTIDE COMPOUND” (CHUGAI SEIYAKU KABUSHIKI KAISHA, priority 2021, published 2024):
Numbered stars: 1 amine (or outer) side, 2 acyl side, 3 side chain; on linkers, the order of the positions; unused ones are H or OH. Bridge positions count the residues as written; N and C are the ends. Square brackets hold non-standard residues; d marks the D form. Peptide text beside a SMILES is read from it. * marks the point of attachment. hPhe(3,5-F2-4-CF3) = N[C@@H](CCc1cc(F)c(C(F)(F)F)c(F)c1)C(=O)O; hPhe(3-Cl-4-CF3) = N[C@@H](CCc1ccc(C(F)(F)F)c(Cl)c1)C(=O)O; X126 = O=C([C@H](Cc1cc(F)cc(I)c1)N[*:1])[*:2]; 3Oxa8azabicyclo(3.2.1)octane = C1CC2COCC1N2*; NEtPhe(4-Me) = CCN[C@@H](Cc1ccc(C)cc1)C(=O)O; NMePhe(4-Cl) = CN[C@@H](Cc1ccc(Cl)cc1)C(=O)O; NMePhe(4-Me) = CN[C@@H](Cc1ccc(C)cc1)C(=O)O; NMePhe(4-F) = CN[C@@H](Cc1ccc(F)cc1)C(=O)O; X64 = O=C([C@H](Cc1ccc(Br)s1)N[*:1])[*:2]; NMeGly(cPent) = CN[C@H](C(=O)O)C1CCCC1; Phe(3-I) = N[C@@H](Cc1cccc(I)c1)C(=O)O; Pro(4,4-F2) = O=C(O)[C@@H]1CC(F)(F)CN1; NMeY = CN[C@@H](Cc1ccc(O)cc1)C(=O)O; NMeCha = CN[C@@H](CC1CCCCC1)C(=O)O; NMehLeu = CN[C@@H](CCC(C)C)C(=O)O; NMeChg = CN[C@H](C(=O)O)C1CCCCC1; NMeD = CN[C@@H](CC(=O)O)C(=O)O; NMeL = CN[C@@H](CC(C)C)C(=O)O; NMeNva = CCC[C@H](NC)C(=O)O; d(β3hA) = C[C@@H](N)CC(=O)O; NMeAbu = CC[C@H](NC)C(=O)O; Morpholide = C1CN(*)CCO1; NMeA = CN[C@@H](C)C(=O)O; NMeAib = CNC(C)(C)C(=O)O; Nle = CCCC[C@H](N)C(=O)O; Piperidide = C1CCN(*)CC1; Pra = C#CC[C@H](N)C(=O)O; Pyrrolidide = C1CCN(*)C1; Ac5c = NC1(C(=O)O)CCCC1; Aze = O=C(O)[C@@H]1CCN1; CF3 = FC(F)(F)*; Sar = CNCC(=O)O

These compounds were tested on Human pancreatic cancer cell line AsPC-1 (G12D mutation Kras) (assay: AsPC-1 cell growth inhibition (AsPC-1 CGI)). Details: read-out: AsPC-1 cell growth inhibition, 50% growth inhibitory concentration (IC50 value); 96 hours, CellTiter-Glo, values classified in ranges.
Assay type: cell-based
Description: Test compounds were serially dilated with dimethyl sulfoxide, and 200 nL was then dispensed to a U-bottom 96-well plate using Labcyte Echo. […] The cell suspension was dispensed to a. plate containing a test compound at 100 μL per well and incubated at 37° C. in a 5% carbon dioxide gas incubator. 96 hours later, 80 μL of CellTiter-Glo (Promega) was added to each well and fluorescence was measured.

Structure (SMILES)	IC50
CC[C@H](C)[C@@H]1NC(=O)[C@H](CC(C)C)N(C)C(=O)C[C@@H](C(=O)N2C3CCC2COC3)N(C)C(=O)[C@H](C2CCCC2)N(C)C(=O)C2(CCCC2)NC(=O)[C@@H]2CCCN2C(=O)[C@H](CCc2cc(F)c(C(F)(F)F)c(F)c2)NC(=O)CN(C)C(=O)[C@H](Cc2ccc(C)cc2)N(CC)C(=O)[C@@H]2CCN2C(=O)[C@H](C)N(C)C1=O [Compound 1215] ([NMeL]I[NMeA][Aze][NEtPhe(4-Me)][Sar][hPhe(3,5-F2-4-CF3)]P[Ac5c][NMeGly(cPent)][NMeD]-{3Oxa8azabicyclo(3.2.1)octane}; lactam N-11)	≤ 0.02 µM
CCCC[C@@H]1NC(=O)[C@H](Cc2ccc(Br)s2)NC(=O)CN(C)C(=O)[C@H](Cc2ccc(Cl)cc2)N(C)C(=O)CN(C)C(=O)CN(C)C(=O)[C@H]([C@@H](C)CC)NC(=O)[C@H](CC(C)C)N(C)C(=O)C[C@@H](C(=O)N2CCCCC2)N(C)C(=O)[C@H](CC(C)C)NC(=O)C(C)(C)N(C)C1=O [Compound 1216] ([NMeL]I[Sar][Sar][NMePhe(4-Cl)][Sar][X64][Nle][NMeAib]L[NMeD]-Piperidide; lactam N-11)	> 0.5 µM
C#CC[C@@H]1NC(=O)[C@H](Cc2cccc(I)c2)NC(=O)CN(C)C(=O)[C@H](Cc2ccc(OC(F)(F)F)cc2)N(C)C(=O)CN(C)C(=O)CN(C)C(=O)[C@H]([C@@H](C)CC)NC(=O)[C@H](CC(C)C)N(C)C(=O)C[C@@H](C(=O)N2CCCCC2)N(C)C(=O)[C@H](CC(C)C)NC(=O)C(C)(C)N(C)C1=O [Compound 1219] ([NMeL]I[Sar][Sar][NMeY](CF3)[Sar][Phe(3-I)][Pra][NMeAib]L[NMeD]-Piperidide; lactam N-11)	> 0.5 µM
CC[C@H](C)[C@@H]1NC(=O)[C@H](CC(C)C)N(C)C(=O)C[C@@H](C)NC(=O)[C@H](C2CCCC2)N(C)C(=O)[C@H](C)NC(=O)[C@@H]2CCCN2C(=O)[C@H](CCc2ccc(C(F)(F)F)c(Cl)c2)NC(=O)CN(C)C(=O)[C@H](Cc2ccc(C)cc2)N(C)C(=O)[C@@H]2CCN2C(=O)[C@H](C)N(C)C1=O [Compound 1221] (cyclo(A[NMeGly(cPent)][d(β3hA)][NMeL]I[NMeA][Aze][NMePhe(4-Me)][Sar][hPhe(3-Cl-4-CF3)]P))	> 0.5 µM
Cc1ccc(C[C@H]2C(=O)N(C)CC(=O)N[C@@H](CCc3ccc(C(F)(F)F)c(Cl)c3)C(=O)N3CCC[C@H]3C(=O)NC3(CCCC3)C(=O)N(C)[C@@H](C3CCCC3)C(=O)N[C@H](C)CC(=O)N(C)[C@@H](CC(C)C)C(=O)N[C@@H](C)C(=O)N(C)[C@@H](C)C(=O)N3CC[C@H]3C(=O)N2C)cc1 [Compound 1225] (cyclo(A[NMeA][Aze][NMePhe(4-Me)][Sar][hPhe(3-Cl-4-CF3)]P[Ac5c][NMeGly(cPent)][d(β3hA)][NMeL]))	> 0.5 µM
CCCC[C@@H]1NC(=O)[C@H](Cc2cc(F)cc(I)c2)NC(=O)CN(C)C(=O)[C@H](Cc2ccc(OC)cc2)N(C)C(=O)[C@@H]2CCN2C(=O)[C@H](C)N(C)C(=O)[C@H]([C@@H](C)CC)NC(=O)[C@H](CC)N(C)C(=O)C[C@@H](C(=O)N2CCCCC2)N(C)C(=O)[C@H](CC(C)C)NC(=O)C(C)(C)N(C)C1=O [Compound 1226] ([NMeAbu]I[NMeA][Aze][NMeY](Me)[Sar][X126][Nle][NMeAib]L[NMeD]-Piperidide; lactam N-11)	> 0.5 µM
C#CC[C@@H]1NC(=O)[C@H](Cc2cccc(I)c2)NC(=O)CN(C)C(=O)[C@H](Cc2ccc(F)cc2)N(C)C(=O)[C@@H]2CCN2C(=O)[C@H](C)N(C)C(=O)[C@H]([C@@H](C)CC)NC(=O)[C@H](CC(C)C)N(C)C(=O)C[C@@H](C(=O)N2CCCCC2)N(C)C(=O)[C@H](CC(C)C)NC(=O)C(C)(C)N(C)C1=O [Compound 1230] ([NMeL]I[NMeA][Aze][NMePhe(4-F)][Sar][Phe(3-I)][Pra][NMeAib]L[NMeD]-Piperidide; lactam N-11)	> 0.5 µM
CCC[C@H]1C(=O)N[C@@H]([C@@H](C)CC)C(=O)N(C)CC(=O)N(C)CC(=O)N(C)[C@@H](CC2CCCCC2)C(=O)N(C)CC(=O)N[C@@H](CCc2ccc(C(F)(F)F)c(Cl)c2)C(=O)N2CC(F)(F)C[C@H]2C(=O)NC2(CCCC2)C(=O)N(C)[C@@H](C2CCCCC2)C(=O)N(C)[C@H](C(=O)N2CCCC2)CC(=O)N1C [Compound 1232] ([NMeNva]I[Sar][Sar][NMeCha][Sar][hPhe(3-Cl-4-CF3)][Pro(4,4-F2)][Ac5c][NMeChg][NMeD]-Pyrrolidide; lactam N-11)	≤ 0.02 µM
CC[C@H](C)[C@@H]1NC(=O)[C@H](CCC(C)C)N(C)C(=O)C[C@@H](C(=O)N2CCOCC2)N(C)C(=O)[C@H](C2CCCC2)N(C)C(=O)C2(CCCC2)NC(=O)[C@@H]2CCCN2C(=O)[C@H](CCc2ccc(C(F)(F)F)c(Cl)c2)NC(=O)CN(C)C(=O)[C@H](C2CCCC2)N(C)C(=O)[C@@H]2CCN2C(=O)[C@H](C)N(C)C1=O [Compound 1237] ([NMehLeu]I[NMeA][Aze][NMeGly(cPent)][Sar][hPhe(3-Cl-4-CF3)]P[Ac5c][NMeGly(cPent)][NMeD]-Morpholide; lactam N-11)	≤ 0.02 µM
